As usually defined, the MIC is the least concentration at which growth counts as inhibited. A lower MIC goes with a more susceptible organism.

≈ marks a conversion by molar mass, not a printed value.

From ChEMBL document CHEMBL1949623, “Camphorsulfonic acid catalysed facile tandem double Friedlander annulation protocol for the synthesis of phenoxy linked bisquinoline derivatives and discovery of antitubercular agents” (Bioorg Med Chem Lett, 2012) come the findings set out here.

One experiment concerns Mycobacterium tuberculosis. Kind of experiment: Ratio of Ciprofloxacin MIC to compound MIC for multi-drug-resistant Mycobacterium tuberculosis H37Rv clinical isolate. The format is functional.
Details: not given
In the case of `Clc1ccc2nc(-c3ccc(Oc4c(-c5ccc(Br)cc5)nc5ccc(Cl)cc5c4-c4ccccc4)cc3)cc(-c3ccccc3)c2c1`, the Ratio worked out at 2.14.

For the compound `Clc1ccc2nc(-c3ccc(Oc4c(-c5cccc(Br)c5)nc5ccc(Cl)cc5c4-c4ccccc4)cc3)cc(-c3ccccc3)c2c1`, the Ratio is listed as 4.27.

For the next experiment, the system named is Mycobacterium tuberculosis. Nature of the experiment: Ratio of Ethambutol MIC to compound MIC for multi-drug-resistant Mycobacterium tuberculosis H37Rv clinical isolate. The format is functional.
Details: not given
With `Clc1ccc2nc(-c3ccc(Oc4c(-c5ccc(Br)cc5)nc5ccc(Cl)cc5c4-c4ccccc4)cc3)cc(-c3ccccc3)c2c1`, the Ratio worked out at 3.45.

The next experiment has as its system Mycobacterium tuberculosis. Nature of the experiment: Antitubercular activity against multi-drug-resistant Mycobacterium tuberculosis H37Rv clinical isolate after 28 days by 10 fold serial dilution method. The format is functional. As to conditions: 672 h.
In turn, `c1ccc(-c2nc3ccccc3c(-c3ccccc3)c2Oc2ccc(-c3cc(-c4ccccc4)c4ccccc4n3)cc2)cc1` came in with a minimal inhibitory concentration (MIC) of 43.4 µM (≈ 25 µg/mL).

On to `Cc1ccc(-c2nc3ccccc3c(-c3ccccc3)c2Oc2ccc(-c3cc(-c4ccccc4)c4ccccc4n3)cc2)cc1`, for which 42.3 µM (≈ 25 µg/mL) was the least that counted as inhibitory (MIC). Consider `Clc1ccc(-c2nc3ccccc3c(-c3ccccc3)c2Oc2ccc(-c3cc(-c4ccccc4)c4ccccc4n3)cc2)cc1`, for which the MIC worked out at 20.5 µM (≈ 12.5 µg/mL). Take `Brc1ccc(-c2nc3ccccc3c(-c3ccccc3)c2Oc2ccc(-c3cc(-c4ccccc4)c4ccccc4n3)cc2)cc1`: the MIC was determined as 19.1 µM (≈ 12.5 µg/mL). Same read-out and setting: under `COc1ccc(-c2nc3ccccc3c(-c3ccccc3)c2Oc2ccc(-c3cc(-c4ccccc4)c4ccccc4n3)cc2)cc1` stands 41.2 µM (≈ 25 µg/mL); under `c1ccc(-c2cc(-c3ccc(Oc4c(-c5cccc6ccccc56)nc5ccccc5c4-c4ccccc4)cc3)nc3ccccc23)cc1`, 39.8 µM (≈ 24.9 µg/mL); under `c1ccc(-c2cc(-c3ccc(Oc4c(-c5ccc6ccccc6c5)nc5ccccc5c4-c4ccccc4)cc3)nc3ccccc23)cc1`, 39.9 µM (≈ 25 µg/mL). The compound `c1ccc(-c2ccc(-c3nc4ccccc4c(-c4ccccc4)c3Oc3ccc(-c4cc(-c5ccccc5)c5ccccc5n4)cc3)cc2)cc1` gave an MIC of 19.1 µM (≈ 12.5 µg/mL). Regarding `Clc1cccc(-c2nc3ccccc3c(-c3ccccc3)c2Oc2ccc(-c3cc(-c4ccccc4)c4ccccc4n3)cc2)c1`, the MIC worked out at 20.5 µM (≈ 12.5 µg/mL).

For the compound `Brc1cccc(-c2nc3ccccc3c(-c3ccccc3)c2Oc2ccc(-c3cc(-c4ccccc4)c4ccccc4n3)cc2)c1`, the minimum inhibitory concentration (MIC) worked out at 4.7 µM (≈ 3.08 µg/mL).

Consider `COc1cccc(-c2nc3ccccc3c(-c3ccccc3)c2Oc2ccc(-c3cc(-c4ccccc4)c4ccccc4n3)cc2)c1`, for which the MIC was found to be 41.2 µM (≈ 25 µg/mL). Regarding `Clc1ccc2nc(-c3ccc(Oc4c(-c5ccccc5)nc5ccc(Cl)cc5c4-c4ccccc4)cc3)cc(-c3ccccc3)c2c1`, the MIC is 19.4 µM (≈ 12.5 µg/mL). For `Cc1ccc(-c2nc3ccc(Cl)cc3c(-c3ccccc3)c2Oc2ccc(-c3cc(-c4ccccc4)c4cc(Cl)ccc4n3)cc2)cc1`, it took 37.9 µM (≈ 25 µg/mL) to inhibit growth (MIC). On to `Clc1ccc(-c2nc3ccc(Cl)cc3c(-c3ccccc3)c2Oc2ccc(-c3cc(-c4ccccc4)c4cc(Cl)ccc4n3)cc2)cc1`, for which 4.6 µM (≈ 3.13 µg/mL) was the least that counted as inhibitory (MIC). `Clc1ccc2nc(-c3ccc(Oc4c(-c5ccc(Br)cc5)nc5ccc(Cl)cc5c4-c4ccccc4)cc3)cc(-c3ccccc3)c2c1` gave an MIC of 2.2 µM (≈ 1.59 µg/mL). Regarding `Clc1ccc2nc(-c3ccc(Oc4c(-c5ccc6ccccc6c5)nc5ccc(Cl)cc5c4-c4ccccc4)cc3)cc(-c3ccccc3)c2c1`, the lowest concentration to inhibit growth (MIC) was 35.9 µM (≈ 25 µg/mL). For the compound `Clc1ccc2nc(-c3ccc(Oc4c(-c5cccc(Br)c5)nc5ccc(Cl)cc5c4-c4ccccc4)cc3)cc(-c3ccccc3)c2c1`, the minimal inhibitory concentration (MIC) turned out to be 1.1 µM (≈ 0.797 µg/mL). As to `CC(=O)c1ccc(Oc2c(-c3ccccc3)nc3ccc(Cl)cc3c2-c2ccccc2)cc1`, the lowest concentration to inhibit growth (MIC) was 55.6 µM (≈ 25 µg/mL). In the case of `CC(=O)c1ccc(Oc2c(-c3ccc(C)cc3)nc3ccc(Cl)cc3c2-c2ccccc2)cc1`, the MIC is 53.8 µM (≈ 25 µg/mL). `CC(=O)c1ccc(Oc2c(-c3ccc(Cl)cc3)nc3ccc(Cl)cc3c2-c2ccccc2)cc1`: 51.6 µM (≈ 25 µg/mL) was the least that counted as inhibitory (MIC).

In turn, `CC(=O)c1ccc(Oc2c(-c3ccc(Br)cc3)nc3ccc(Cl)cc3c2-c2ccccc2)cc1` came in with an MIC of 47.3 µM (≈ 25 µg/mL). On the same count and under the same terms, the result for `CC(=O)c1ccc(Oc2c(-c3ccc4ccccc4c3)nc3ccc(Cl)cc3c2-c2ccccc2)cc1` reads 50 µM (≈ 25 µg/mL). In turn, `CC(=O)c1ccc(Oc2c(-c3cccc(Br)c3)nc3ccc(Cl)cc3c2-c2ccccc2)cc1` yielded an MIC of 11.8 µM (≈ 6.24 µg/mL). Still for that read-out and setting: the result for `CC[C@@H](CO)NCCN[C@@H](CC)CO` [ETHAMBUTOL] reads 7.6 µM (≈ 1.55 µg/mL); that for `NNC(=O)c1ccncc1` [ISONIAZID], 0.4 µM (≈ 0.0549 µg/mL); that for `NC(=O)c1cnccn1` [PYRAZINAMIDE], 50.8 µM (≈ 6.25 µg/mL). The compound `CO[C@H]1/C=C/O[C@@]2(C)Oc3c(C)c(O)c4c(O)c(c(/C=N/N5CCN(C)CC5)c(O)c4c3C2=O)NC(=O)/C(C)=C\C=C\[C@H](C)[C@H](O)[C@@H](C)[C@@H](O)[C@@H](C)[C@H](OC(C)=O)[C@@H]1C` [RIFAMPIN] gave an MIC of 0.1 µM (≈ 0.0823 µg/mL).
